# From patent publication US20230365625A1, “METHODS FOR TREATING AND/OR PREVENTING UNDESIRABLE SEQULAE OF NASAL TURBINOPLASTY OR FUNCTIONAL ENDOSCOPIC SINUS SURGERY” (3-D Matrix, Ltd., priority 2022, published 2023)
# Several values for one entry are separate records, joined by “and”; a condition that tells them apart may be missing. Identical values can stand only once. Entries after “also recorded” stand apart in the source; their conditions may differ.
# Key:
# [1] = tested on: gastrointestinal endoscopic procedures and cardiovascular surgery; details: 2.5% w/v in water, topical hemostat; cited from earlier work
# [2] = tested on: mucosa at the operated middle turbinate sites; assay: Histopathology of the surgical site at 6 weeks (H&E, 6 markers of wound healing), sheep model; type: in vivo, Merino sheep
# Experimental: Termination—At day 42, the animals were euthanized with standard terminal procedures through an intravenous injection of sodium pentobarbital. Post-termination, the mucosa at the operated middle turbinate sites were excised and prepared via hematoxylin and eosin staining by a veterinary histopathologist using 6 different markers of wound healing as shown in Table 3. [table] Histopathology observations—Vertical incisions through the roof and floor of the nasal cavity were performed during necropsy after endoscopic evaluation. This allowed both lateral nasal walls to be opened outwards from the septum whereby the operated mucosa adjacent to the vomer could be easily identified and excised atraumatically. Specimens were preserved in 10% neutral buffered formalin and transported for hematoxylin and eosin staining and slide preparation. Example specimens are shown in FIGS. 4A and 4B for PuraSinus treated tissue and FIGS. 5A and 5B for FLOSEAL treated tissue. Individual sample observations are presented in Appendix 3.
# [3] = 2.5% in water; cited from earlier work
# [4] = tested on: nasal mucosal injuries on the middle turbinate and opposing nasal septum; assay: Intra-operative time to hemostasis, sheep endoscopic nasal surgery model; type: in vivo, Merino sheep
# Experimental: Surgical Methods—On the day prior to surgery, the animals were weighed, and each nostril was randomly assigned by computer randomization to receive PuraSinus, FLOSEAL or no treatment to each nostril after the surgical turbinoplasty. Each animal had food withheld for 24 hours and water withheld for 8 to 12 hours prior to the day of surgery as per the standard anesthetic procedure. The animals were sedated with a weight adjusted dose of intravenous diazepam. Following sedation, a percutaneous jugular catheter was inserted and secured, with induction achieved by further weight adjusted doses of intravenous diazepam and ketamine. The animals were placed in sternal recumbency for insertion of a size-appropriate endotracheal tube. Anesthesia was maintained through inhaled 1-2% isofluorane with parenteral propofol and ketamine given when necessary. Each animal was then given a prophylactic dose of long-acting antibiotic, weight adjusted oxytetracycline to cover for postoperative infections. The nasal cavity was prepared by packing with surgical pledgets soaked in 1% lignocaine and phenylephrine mixture. The middle turbinate was infiltrated with the same lignocaine/phenylephrine mixture via a small gauge needle in numerous sites over the middle turbinate. The use of vasoconstrictors and decongestants such as lignocaine and phenylephrine both topically and injected locally is standard pre-operatively in patients undergoing turbinoplasty (Ahmed S. et al., J. Coll. Physicians Surg. Pak. 26(6): 531-2 (2016)) The animals' vital signs were monitored throughout the procedure.
# Prior to making incisions, all sheep were first examined under endoscope to screen for any nasal septum deviations. Only animals that had straight septum and uniform space between septum and middle turbinate were used. […]
# Intraoperative observations—The degree of bleeding/hemostasis was assessed by an independent observer who was blinded to the appearance of FLOSEAL and PuraSinus (SEQ ID NO:1), and to the background of these two hemostatic agents. […]
# [5] = 1% in water; cited from earlier work
# [6] = individual site, 6 weeks, scale 0-3, listed as P
# [7] = individual site, 6 weeks, scale −1-1, listed as P
smiles,measurement,setting,value
"CC(=O)N[C@@H](CCCNC(=N)N)C(=O)N[C@@H](C)C(=O)N[C@@H](CC(=O)O)C(=O)N[C@@H](C)C(=O)N[C@@H](CCCNC(=N)N)C(=O)N[C@@H](C)C(=O)N[C@@H](CC(=O)O)C(=O)N[C@@H](C)C(=O)N[C@@H](CCCNC(=N)N)C(=O)N[C@@H](C)C(=O)N[C@@H](CC(=O)O)C(=O)N[C@@H](C)C(=O)N[C@@H](CCCNC(=N)N)C(=O)N[C@@H](C)C(=O)N[C@@H](CC(=O)O)C(=O)N[C@@H](C)C(N)=O [PuraSinus, Ac-RADARADARADARADA-NH2]",Successful hemostasis rates,[1],72.6-100%
same,Angiogenesis (A): number of sites Grade 0,[2]; 6 weeks,9
same,Angiogenesis (A): number of sites Grade 1,[2]; 6 weeks,6
same,Angiogenesis (A): number of sites Grade 2,[2]; 6 weeks,4
same,Angiogenesis (A): number of sites Grade 3,[2]; 6 weeks,1
same,Epithelial erosion (EE): number of sites Grade 0,[2]; 6 weeks,5
same,Epithelial erosion (EE): number of sites Grade 1,[2]; 6 weeks,8
same,Epithelial erosion (EE): number of sites Grade 2,[2]; 6 weeks,6
same,Epithelial erosion (EE): number of sites Grade 3,[2]; 6 weeks,1
same,Goblet cells (GC): number of sites Grade 0,[2]; 6 weeks,6
same,Goblet cells (GC): number of sites Grade +1,[2]; 6 weeks,6
same,Goblet cells (GC): number of sites Grade −1,[2]; 6 weeks,8
same,Inflammatory infiltrate (II): number of sites Grade 0,[2]; 6 weeks,3
same,Inflammatory infiltrate (II): number of sites Grade 1,[2]; 6 weeks,13
same,Inflammatory infiltrate (II): number of sites Grade 2,[2]; 6 weeks,4
same,Inflammatory infiltrate (II): number of sites Grade 3,[2]; 6 weeks,0
same,Sero-mucous glands (SMC): number of sites Grade 0,[2]; 6 weeks,14
same,Sero-mucous glands (SMC): number of sites Grade +1,[2]; 6 weeks,0
same,Sero-mucous glands (SMC): number of sites Grade −1,[2]; 6 weeks,6
same,Submucosal fibrosis (SF): number of sites Grade 0,[2]; 6 weeks,4
same,Submucosal fibrosis (SF): number of sites Grade 1,[2]; 6 weeks,12
same,Submucosal fibrosis (SF): number of sites Grade 2,[2]; 6 weeks,3
same,Submucosal fibrosis (SF): number of sites Grade 3,[2]; 6 weeks,1
same,Mucosal regeneration / wound healing on histopathology,"[2]; 6 weeks, result in words",favorable outcomes for wound healing enhancement across all 6 metrics; also recorded: enhancement to mucosal regeneration; also recorded: more commonly associated with enhanced mucosal regeneration; also recorded: improved outcome
same,Angiogenesis (A): Mean score,"[2]; 6 weeks, scale 0-3",0.85
same,Epithelial erosion (EE): Mean score,"[2]; 6 weeks, scale 0-3",1.15
same,Inflammatory infiltrate (II): Mean score,"[2]; 6 weeks, scale 0-3",1.05
same,Submucosal fibrosis (SF): Mean score,"[2]; 6 weeks, scale 0-3",1.05
same,Goblet cells (GC): Mean score,"[2]; 6 weeks, scale −1-1",−0.1
same,Sero-mucous glands (SMC): Mean score,"[2]; 6 weeks, scale −1-1",−0.3
same,A (angiogenesis) grade,[2]; [6],1 (6×) and 3 and 0 (9×) and 2 (4×)
same,EE (epithelial erosion) grade,[2]; [6],1 (8×) and 2 (6×) and 0 (5×) and 3
same,II (inflammatory infiltrate) grade,[2]; [6],2 (4×) and 1 (13×) and 0 (3×)
same,SF (submucosal fibrosis) grade,[2]; [6],1 (12×) and 2 (3×) and 0 (4×) and 3
same,GC (goblet cells) grade,[2]; [7],−1 (8×) and 1 (6×) and 0 (6×)
same,SMC (sero-mucous glands) grade,[2]; [7],−1 (6×) and 0 (14×)
same,6-week histopathology scores,"[2]; result in words, driven by reduced submucosal fibrosis and angiogenesis",significantly lower
same,Storage modulus G′,[3],about 350 Pa
same,Time to hemostasis,"[4]; individual surgical site (sheep number, nostril), listed as P",120 sec and 102 sec and 125 sec and 130 sec (3×) and 140 sec and 150 sec (2×) and 70 sec and 220 sec and 85 sec and 180 sec and 190 sec and 210 sec and 95 sec and 290 sec and 58 sec and 131 sec and 87 sec
same,Intra-operative hemostasis time,"[4]; sheep, mean±SD, 20 sites per group",139.7 ± 56.2 s
same,Hemostasis compared to untreated control,"[4]; sheep, result in words",statistically significant reduction in time to hemostasis; also recorded: improved hemostasis
same,Increase in storage modulus G′ after DMEM treatment relative to before,[5],43.5 fold
